According to publication PMC12267056 (Nature, 2025):
Substitutions are numbered along the chain they refer to. Several values for one entry are separate records, joined by “and”; a condition that tells them apart may be missing. Identical values can stand only once.

Key:
SLC35B1 K120A = SLC35B1 K120A (Homo sapiens, UniProt P78383, K120A); test: biochemical; conditions: read-out: ΔTm, individual titrations (source data), variant K120A; 1 mM ATP
SLC35B1 K277A = molecular target: T1, SLC35B1 K277A (Homo sapiens, UniProt P78383, K277A); conditions: variant K277A; 1 mM ATP
T1 sequence (P78383 1-322 K277A): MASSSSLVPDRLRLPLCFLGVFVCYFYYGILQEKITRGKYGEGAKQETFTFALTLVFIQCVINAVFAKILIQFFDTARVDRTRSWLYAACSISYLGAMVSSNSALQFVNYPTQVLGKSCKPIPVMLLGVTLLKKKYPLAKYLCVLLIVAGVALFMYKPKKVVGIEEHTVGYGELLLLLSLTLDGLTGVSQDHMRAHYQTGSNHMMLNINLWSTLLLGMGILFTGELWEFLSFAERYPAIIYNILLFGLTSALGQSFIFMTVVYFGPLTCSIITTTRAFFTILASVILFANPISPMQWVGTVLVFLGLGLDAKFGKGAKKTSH

SLC35B1 T273A = SLC35B1 T273A (Homo sapiens, UniProt P78383, T273A); conditions: variant T273A; 1 mM ATP
SLC35B1 Q113F = molecular target: T2, SLC35B1 Q113F (Homo sapiens, UniProt P78383, Q113F); conditions: variant Q113F; 1 mM ATP
T2 sequence (P78383 1-322 Q113F): T1 sequence (P78383 1-322 K277A) with Q113F, A277K

SLC35B1 I257E [1] = molecular target: T3, SLC35B1 I257E (Homo sapiens, UniProt P78383, I257E); conditions: variant I257E; 1 mM ATP
T3 sequence (P78383 1-322 I257E): T1 sequence (P78383 1-322 K277A) with I257E, A277K

crude ER microsomes = conditions: read-out: Km for ATP import into crude ER microsomes; cited from earlier work
SLC35B1 I257E [2] = molecular target: T3, SLC35B1 I257E; conditions: variant I257E; 37 °C
SLC35B1 R194A = SLC35B1 R194A (Homo sapiens, UniProt P78383, R194A); conditions: variant R194A; 1 mM ATP
SLC35B1 C269A = molecular target: T4, SLC35B1 C269A (Homo sapiens, UniProt P78383, C269A); conditions: variant C269A; 37 °C
T4 sequence (P78383 1-322 C269A): T1 sequence (P78383 1-322 K277A) with C269A, A277K

SLC35B1 R276A [3] = molecular target: T5, SLC35B1 R276A (Homo sapiens, UniProt P78383, R276A); conditions: variant R276A; 1 mM ATP
T5 sequence (P78383 1-322 R276A): T1 sequence (P78383 1-322 K277A) with R276A, A277K

SLC35B1 R276A [4] = molecular target: T5, SLC35B1 R276A; conditions: variant R276A; 37 °C
[5] = molecular target: T6, human SLC35B1 (wild type) (Homo sapiens, UniProt P78383); assay type: binding; set-up: made in house; host or cells: Saccharomyces cerevisiae FGY217
T6 sequence (P78383 1-322): T1 sequence (P78383 1-322 K277A) with A277K

[6] = molecular target: T6, human SLC35B1 (wild type); conditions: single temperature 37 °C
SLC35B1 Q190A = molecular target: T7, SLC35B1 Q190A (Homo sapiens, UniProt P78383, Q190A); conditions: variant Q190A; 1 mM ATP
T7 sequence (P78383 1-322 Q190A): T1 sequence (P78383 1-322 K277A) with Q190A, A277K

BiP = conditions: cited from earlier work

Sequence of SLC35B1 R194A (P78383 whole entry R194A): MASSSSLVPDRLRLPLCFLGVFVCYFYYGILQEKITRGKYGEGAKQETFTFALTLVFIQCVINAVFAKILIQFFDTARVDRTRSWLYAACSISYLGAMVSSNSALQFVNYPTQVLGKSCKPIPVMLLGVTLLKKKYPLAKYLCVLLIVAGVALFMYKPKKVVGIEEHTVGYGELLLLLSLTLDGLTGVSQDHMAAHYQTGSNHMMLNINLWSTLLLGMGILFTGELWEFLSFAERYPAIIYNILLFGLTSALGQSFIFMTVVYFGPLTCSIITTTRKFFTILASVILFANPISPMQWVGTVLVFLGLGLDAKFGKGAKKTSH
Sequence of SLC35B1 K120A (P78383 whole entry K120A): as the sequence (P78383 whole entry R194A) above, with K120A, A194R counted along it
Sequence of SLC35B1 T273A (P78383 whole entry T273A): as the sequence (P78383 whole entry R194A) above, with A194R, T273A counted along it

SMILES: Nc1ncnc2c1ncn2[C@@H]1O[C@H](COP(=O)(O)OP(=O)(O)OP(=O)(O)O)[C@@H](O)[C@H]1O [ATP]
- ΔTm at 1000 µM (SLC35B1 K120A): 1.17 °C
- ΔTm, individual titrations (source data) (SLC35B1 K277A): 2.51
- ΔTm, individual titrations (source data) (SLC35B1 T273A): 2.49
- ΔTm, individual titrations (source data) (SLC35B1 Q113F): 6.34
- ΔTm, individual titrations (source data) (SLC35B1 I257E [1]): 1.4
- Km (crude ER microsomes): 3 to 5 µM and 4 µM
- Concentration-dependent ATP thermostabilization (SLC35B1 I257E [2]): severely diminished
- DTM (ΔTm with ATP) (SLC35B1 R194A): robust ATP binding
- Concentration-dependent ATP thermostabilization (SLC35B1 C269A): still able to interact with ATP
- ΔTm, individual titrations (source data) (SLC35B1 R276A [3]): 0.15 and 0.2
- Concentration-dependent ATP thermostabilization (SLC35B1 R276A [4]): no clear thermostabilization
- ΔTm (average melting temperature increase) ([5]; 1 mM nucleotide, purified wild-type SLC35B1–GFP): 5.2 °C
- GFP fluorescence after heating (source data Fig 1B) ([5]; temperature 40, 1 mM substrate): 49.9464
- Concentration of maximal thermostabilization [6]: 1 mM
- ΔTm, individual titrations (source data) (SLC35B1 Q190A): 5.9
- kcat of BiP (BiP): 0.000217 s⁻¹
